Data reported in US9974778B2, “Substituted pyridinones as MGAT2 inhibitors” (BRISTOL-MYERS SQUIBB COMPANY, priority 2014, dated 2018).

The molecules below were run against T1, Human MGAT-2 (Homo sapiens, UniProt Q3SYC2) (assay: MGAT LCMS Assay). Conditions: human MGAT2 membranes expressed in Sf9 cells; 100 μM 2-oleoylglycerol, 15 μM oleoyl-coenzyme A; read-out: h-MGAT LCMS IC50.
T1 construct: made in house; host or cells: Sf9 cells (membrane preparation)
T1 sequence (Q3SYC2 whole entry): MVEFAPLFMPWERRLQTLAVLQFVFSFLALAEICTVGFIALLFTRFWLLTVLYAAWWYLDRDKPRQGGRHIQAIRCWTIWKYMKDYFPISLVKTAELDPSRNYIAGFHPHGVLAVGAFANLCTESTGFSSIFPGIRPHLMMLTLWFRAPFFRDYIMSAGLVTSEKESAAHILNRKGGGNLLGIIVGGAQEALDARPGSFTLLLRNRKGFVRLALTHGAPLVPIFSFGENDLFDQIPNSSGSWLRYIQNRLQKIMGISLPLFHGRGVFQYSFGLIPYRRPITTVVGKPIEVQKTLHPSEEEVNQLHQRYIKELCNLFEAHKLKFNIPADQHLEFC
Assay type: biochemical
How it was run: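 Robotic enzyme reaction shaken 10 min, quenched with ice-cold methanol containing 1 μg/mL 1,2-distearoyl-rac-glycerol internal standard. Diolein product measured by LC/MS (C8 column, 65° C, APCI(+) triple quad). IC50 derived from diolein/internal standard peak area ratio.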
For CCc1ccc(-c2cc(-c3ccc(OCCCCCC(F)(F)F)cc3C(F)(F)F)[nH]c(=O)c2C(=O)NS(=O)(=O)C2CC2)s1 [Example 154, N-(Cyclopropanesulfonyl)-4-(5-ethylthiophen-2-yl)-2-oxo-6-{4-[(6,6,6-trifluorohexyl)oxy]-2-(trifluoromethyl)phenyl}-1,2-dihydropyridine-3-carboxamide], the IC50 was 2 nM.
CS(=O)(=O)NC(=O)c1c(-c2ccc(OC(F)F)cc2)cc(-c2ccc(OCCCCCC(F)(F)F)cc2)[nH]c1=O [Example 71] was tested, and the IC50 was 15 nM.
In the case of CS(=O)(=O)NC(=O)c1c(-c2ccn(CC3CC3)n2)c(F)c(-c2ccc(OCCCC(F)(F)F)cc2)[nH]c1=O [Example 109, 4-(1-(Cyclopropylmethyl)-1H-pyrazol-3-yl)-5-fluoro-N-(methylsulfonyl)-2-oxo-6-(4-(4,4,4-trifluorobutoxy)phenyl)-1,2-dihydropyridine-3-carboxamide], the IC50 is reported as 130 nM.
For Cc1ccc(-c2cc(-c3ccc(OCCCC(F)(F)F)c(C)c3)[nH]c(=O)c2-c2nnn[nH]2)cc1 [Example 58, 6-(3-Methyl-4-(4,4,4-trifluorobutoxy)phenyl)-3-(1H-tetrazol-5-yl)-4-(p-tolyl)pyridin-2(1H)-one], the IC50 was 575 nM.
Molecule CCCCCc1ccc(-c2c(C3CCCC3)[nH]c(=O)c(C(=O)Nc3ccc(OCC)cc3)c2-c2ccc(C)cc2)cc1 [Example 40, 6-Cyclopentyl-N-(4-ethoxyphenyl)-2-oxo-5-(4-pentylphenyl)-4-(p-tolyl)-1,2-dihydropyridine-3-carboxamide] has an IC50 of 390 nM.
With C=Cc1c(-c2ccc(CCCCC)cc2)[nH]c(=O)c(C(=O)Nc2ccc(OCC)cc2)c1-c1ccc(C)cc1 [Example 26, N-(4-Ethoxyphenyl)-2-oxo-6-(4-pentylphenyl)-4-(p-tolyl)-5-vinyl-1,2-dihydropyridine-3-carboxamide] the IC50 was 82 nM.
With CCOc1cc(OCCCCCC(F)(F)F)ccc1-c1cc(-c2ccc(C3CC3)cc2)c(-c2nnn[nH]2)c(=O)[nH]1 [Example 124, 4-(4-Cyclopropylphenyl)-6-(2-ethoxy-4-((6,6,6-trifIuorohexyl)oxy)phenyl)-3-(1H-tetrazol-5-yl)pyridin-2(1H)-one] the IC50 was 129 nM.
With CCc1ccc(-c2cc(-c3ccc(OCCCC(F)(F)F)cc3Cl)[nH]c(=O)c2C(=O)NS(C)(=O)=O)s1 [Example 140, 6-(2-Chloro-4-(4,4,4-trifluorobutoxy)phenyl)-4-(5-ethylthiophen-2-yl)-N-(methylsulfonyl)-2-oxo-1,2-dihydropyridine-3-carboxamide] the IC50 was 30 nM.
COc1ccc(NC(=O)c2c(-c3ccc(C)cc3)cc(C3CCCCC3)[nH]c2=O)cc1 [Example 34, 6-Cyclohexyl-N-(4-methoxyphenyl)-2-oxo-4-(p-tolyl)-1,2-dihydropyridine-3-carboxamide] showed an IC50 of 223 nM.
CCOc1ccc(NC(=O)c2c(-c3ccc(C)cc3)c(F)c(C3CCCCC3)[nH]c2=O)cc1 [Example 38, 6-Cyclohexyl-N-(4-ethoxyphenyl)-5-fluoro-2-oxo-4-(p-tolyl)-1,2-dihydropyridine-3-carboxamide] gave an IC50 of 1250 nM.
Molecule CCOc1ccc(NC(=O)c2c(-c3ccc(C)cc3)cc(C3(F)CCCC3)[nH]c2=O)cc1 [Example 54, N-(4-Ethoxyphenyl)-6-(1-fluorocyclopentyl)-2-oxo-4-(p-tolyl)-1,2-dihydropyridinc-3-carboxamide] has an IC50 of 127 nM.
For CCOc1ccc(NC(=O)c2c(-c3ccc(C)cc3)cc(-c3ccc(OCCCC(F)(F)F)cc3F)[nH]c2=O)cc1 [Example 114, N-(4-Ethoxyphenyl)-6-(2-fluoro-4-(4,4,4-trifluorobutoxy)phenyl)-2-oxo-4-(p-tolyl)-1,2-dihydropyridine-3-carboxamide], the IC50 was 14 nM.
Molecule O=c1[nH]c(-c2ccc(OCCCCCC(F)(F)F)cc2)cc(-c2ccc(OC(F)F)cc2)c1-c1nnn[nH]1 [Example 108, 4-(4-(Difluoromethoxy)phenyl)-3-(1H-tetrazol-5-yl)-6-(4-((6,6-trifluorohexyl)oxy)phenyl)pyridin-2(1H)-one] has an IC50 of 14 nM.
CS(=O)(=O)NC(=O)c1c(-c2ccn(CC3CC3)n2)cc(-c2ccc(OCCCC(F)(F)F)cc2)[nH]c1=O [Example 98, 4-(1-(Cyclopropylmethyl)-1H-pyrazol-3-yl)-N-(methylsulfonyl)-2-oxo-6-(4-(4,4,4-trifluorobutoxy)phenyl)-1,2-dihydropyridine-3-carboxamide] showed an IC50 of 332 nM.
In the case of Cc1ccc(-c2cc(-c3ccc(CCC4CC4)cc3)[nH]c(=O)c2-c2nnn[nH]2)cc1 [Example 61, 6-(4-(2-Cyclopropylethyl)phenyl)-3-(1H-tetrazol-5-yl)-4-(p-tolyl)pyridin-2(1H)-one], the IC50 is reported as 139 nM.
CCc1ccc(-c2cc(-c3ccc(/C=C/C4CC4)cc3)[nH]c(=O)c2-c2nn[nH]n2)s1 [Example 142, (E)-6-(4-(2-Cyclopropylvinyl)phenyl)-4-(5-ethylthiophen-2-yl)-3-(2H-tetrazol-5-yl)pyridin-2(1H)-one] gave an IC50 of 4 nM.
COc1ccc(NC(=O)c2c(-c3ccc(C)cc3)c(F)c(-c3ccc(OCCCC(F)(F)F)cc3)[nH]c2=O)cc1 [Example 3, 5-Fluoro-N-(4-methoxyphenyl)-2-oxo-4-(p-tolyl)-6-(4-(4,4,4-trifluorobutoxy)phenyl)-1,2-dihydropyridine-3-carboxamide] showed an IC50 of 19 nM.
CC/C=C/c1c(-c2ccc(CCCCC)cc2)[nH]c(=O)c(C(=O)Nc2ccc(OCC)cc2)c1-c1ccc(C)cc1 [Example 31, (E)-5-(But-1-en-1-yl)-N-(4-ethoxyphenyl)-2-oxo-6-(4-pentylphenyl)-4-(p-tolyl)-1,2-dihydropyridine-3-carboxamide] was tested, and the IC50 was 178 nM.
CCc1cnc(-c2cc(-c3ccc(OCCCCCC(F)(F)F)cc3F)[nH]c(=O)c2)s1 [Example 166, 4-(5-Ethyl-1,3-thiazol-2-yl)-6-{2-fluoro-4-[(6,6,6-trifluorohexyl)oxy]phenyl}-1,2-dihydropyridin-2-one] gave an IC50 of 70 nM.
CC(C)(C)c1ccc(-c2cc(-c3ccc(OCCCC(F)(F)F)cc3)[nH]c(=O)c2C(=O)NS(=O)(=O)C2CC2)cc1 [Example 12, 4-(4-(tert-Butyl)phenyl)-N-(cyclopropylsulfonyl)-2-oxo-6-(4-(4,4,4-trifluorobutoxy)phenyl)-1,2-dihydropyridine-3-carboxamide] was tested, and the IC50 was 56 nM.
With Cc1ccc(-c2c(F)c(-c3ccc(OCCCCCC(F)(F)F)cc3)[nH]c(=O)c2C(=O)NS(C)(=O)=O)cc1 [Example 117, 5-Fluoro-N-(methylsulfonyl)-2-oxo-4-(p-tolyl)-6-(4-((6,6,6-trifluorohexyl)oxy)phenyl)-1,2-dihydropyridine-3-carboxamide] the IC50 was 29 nM.
